Measured values reported in US8338336B2, “Synergistic herbicidal composition containing penoxsulam and oxyfluorfen” (Dow AgroSciences, LLC, priority 2010, dated 2012).

How the values were obtained:
Assay type in all cases: in vivo
[1] = system: SHRAR = field madder (Sherardia arvensis); assay: Field trial, autumn pre-emergence application, residual weed control (Table 2); settings: rated 97 to 175 Days After Application
Experimental: (§1) Evaluation of Pre-Emergence and Post-Emergence Herbicidal Activity of Mixtures in the Field
(§2) Field trials were conducted in perennial tree and vine crops using standard herbicide small plot research methodology. Plots varied from 3×3 meter (m) to 3×10 m (width×length) with 3 to 4 replicates per treatment. The perennial tree and vine crops were grown using normal cultural practices for the respective areas for the trials, using normal planting, fertilization, watering, flooding and maintenance for pests to ensure good growth of the crop and the weeds.
(§3) All treatments in the field trials were applied using a carbon dioxide (CO2) backpack sprayer calibrated to apply 187 liters per hectare (L/ha) spray volume. Commercially available products of penoxsulam and oxyfluorfen were mixed in water at appropriate formulated product rates to achieve the desired rates shown based on a unit area of application (hectare). Treatments were rated at different intervals from treatment to evaluation, from 7 to 175 days after application as compared to the untreated control plants. Due to the long term residual weed control needed to determine the synergistic effect, all single entity products and their tank mixes were mixed with glyphosate to ensure complete weed burndown to be able to measure residual weed control and not just burndown of weeds. Visual weed control was scored on a scale of 0 to 100 percent where 0 corresponds to no injury and 100 corresponds to complete kill.
(§4) Colby's equation was used to determine the herbicidal effects expected from the mixtures (Colby, S. R. Calculation of the synergistic and antagonistic response of herbicide combinations. Weeds 1967, 15, 20-22).
(§5) The following equation was used to calculate the expected activity of mixtures containing two active ingredients, A and B: Expected=A+B−(A×B/100)
(§6) A=observed efficacy of active ingredient A at the same concentration as used in the mixture.
(§7) B=observed efficacy of active ingredient B at the same concentration as used in the mixture.

[2] = system: ERICA = marestail (Conyza canadensis); assay: as above; settings: Spain, rated 97 to 175 Days After Application; for % Control ERICA (2) Ob (observed visual weed control): Moron de la frontera; for % Control ERICA (1) Ob (observed visual weed control): Utrera
Experimental: as §1, §2, §3, §4, §5, §6, §7

[3] = system: SOLNI = black nightshade (Solanum nigrum); assay: Field trial, autumn post-emergence application, post-emergence burndown activity (Table 4); settings: Seville; for % Control SOLNI(2) Ob (observed visual weed control): Spain - 7 Days After Application; for % Control SOLNI(1) Ob (observed visual weed control): Spain - 20 Days After Application
Experimental: as §1, §2, §3, §4, §5, §6, §7

[4] = system: HEOEU = common heliotrope (Heliotropium europaeum); assay: Field trial, autumn post-emergence application, residual weed control (Table 3); settings: rated 56 Days After Application
Experimental: as §1, §2, §3, §4, §5, §6, §7

[5] = system: POROL = purslane (Portulaca oleracea); assay: as above; settings: rated 56 Days After Application
Experimental: as §1, §2, §3, §4, §5, §6, §7

[6] = system: CHEAL = common lambsquarter (Chenopodium album); assay: as above; settings: rated 56 Days After Application
Experimental: as §1, §2, §3, §4, §5, §6, §7

[7] = system: ERICA = marestail (Conyza canadensis); assay: Field trial, winter pre-emergence application, residual weed control (Table 1); settings: rated 50 to 132 Days After Application
Experimental: as §1, §2, §3, §4, §5, §6, §7

[8] = system: MALNE = mallow/malva (Malva neglecta); assay: as above; settings: rated 50 to 132 Days After Application
Experimental: as §1, §2, §3, §4, §5, §6, §7

[9] = system: ERIBO = fleabane (Conyza bonariensis); assay: as above; settings: rated 50 to 132 Days After Application
Experimental: as §1, §2, §3, §4, §5, §6, §7

Structure (SMILES): CCOc1cc(Oc2ccc(C(F)(F)F)cc2Cl)ccc1[N+](=O)[O-] [Oxyfluorfen]
- % Control SHRAR Ob (observed visual weed control) ([1]; oxyfluorfen 150 g/ha alone): 63%
- % Control ERICA (2) Ob (observed visual weed control) ([2]; oxyfluorfen 150 g/ha alone): 79%
- % Control ERICA (1) Ob (observed visual weed control) ([2]; oxyfluorfen 150 g/ha alone): 38%
- % Control SOLNI(2) Ob (observed visual weed control) ([3]; oxyfluorfen 150 g/ha alone): 45%
- % Control SOLNI(1) Ob (observed visual weed control) ([3]; oxyfluorfen 150 g/ha alone): 35%
- % Control HEOEU Ob (observed visual weed control) ([4]; oxyfluorfen 150 g/ha alone): 0%
- % Control POROL Ob (observed visual weed control) ([5]; oxyfluorfen 150 g/ha alone): 0%
- % Control CHEAL Ob (observed visual weed control) ([6]; oxyfluorfen 150 g/ha alone): 0%
- % Control ERICA Ob (observed visual weed control) ([7]; oxyfluorfen 1680 g/ha alone): 5%
- % Control MALNE Ob (observed visual weed control) ([8]; oxyfluorfen 1680 g/ha alone): 30%
- % Control ERIBO Ob (observed visual weed control) ([9]; oxyfluorfen 1120 g/ha alone): 0%

Structure (SMILES): COc1cnc(OC)n2nc(NS(=O)(=O)c3c(OCC(F)F)cccc3C(F)(F)F)nc12 [Penoxsulam, 2-(2,2-difluoroethoxy)-N-(5,8-dimethoxy-[1,2,4]triazolo[1,5-c]pyrimidin-2-yl)-6-(trifluoromethyl)benzenesulfonamide]
- % Control SHRAR Ob (observed visual weed control) ([1]; penoxsulam 20 g/ha alone): 0%
- % Control ERICA (2) Ob (observed visual weed control) ([2]; penoxsulam 20 g/ha alone): 6%
- % Control ERICA (1) Ob (observed visual weed control) ([2]; penoxsulam 20 g/ha alone): 23%
- % Control SOLNI(2) Ob (observed visual weed control) ([3]; penoxsulam 20 g/ha alone): 10%
- % Control SOLNI(1) Ob (observed visual weed control) ([3]; penoxsulam 20 g/ha alone): 10%
- % Control HEOEU Ob (observed visual weed control) ([4]; penoxsulam 20 g/ha alone): 0%
- % Control POROL Ob (observed visual weed control) ([5]; penoxsulam 20 g/ha alone): 0%
- % Control CHEAL Ob (observed visual weed control) ([6]; penoxsulam 20 g/ha alone): 0%
- % Control ERICA Ob (observed visual weed control) ([7]; penoxsulam 8.8 g/ha alone): 75%
- % Control MALNE Ob (observed visual weed control) ([8]; penoxsulam 17.5 g/ha alone): 37%
- % Control MALNE Ob (observed visual weed control) ([8]; penoxsulam 35 g/ha alone): 50%
- % Control ERIBO Ob (observed visual weed control) ([9]; penoxsulam 8.8 g/ha alone): 65%
